Measurements published in article PMC5372681, “Study of Different Variants of Mo Enzyme crARC and the Interaction with Its Partners crCytb5-R and crCytb5-1” (International Journal of Molecular Sciences, 2017).

Columns and labels:
Assay type in all cases: biochemical
crARC [1] = target: T1, crARC (Chlamydomonas reinhardtii, UniProt F8UWQ7); assay: HPLC of benzamidine formed; conditions: 1 mM benzamidoxime, 3 mM dithionite, 2 mM benzylviologen, 100 mM potassium phosphate pH 7.4, 37 °C
T1 construct: gene ARC; N-terminal His6 (pQE80), E. coli TP1000, Ni-NTA
T1 sequence (F8UWQ7 entry or part of it): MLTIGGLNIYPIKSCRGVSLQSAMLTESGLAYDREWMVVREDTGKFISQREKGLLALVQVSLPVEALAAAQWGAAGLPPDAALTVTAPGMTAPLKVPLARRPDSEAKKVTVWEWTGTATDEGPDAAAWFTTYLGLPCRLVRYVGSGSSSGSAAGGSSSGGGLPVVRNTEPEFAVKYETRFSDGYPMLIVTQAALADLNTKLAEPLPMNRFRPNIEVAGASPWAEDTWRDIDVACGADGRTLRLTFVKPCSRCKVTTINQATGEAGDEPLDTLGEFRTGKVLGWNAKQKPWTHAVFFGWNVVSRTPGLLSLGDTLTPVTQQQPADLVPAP

crARC [2] = target: T2, crARC (Chlamydomonas reinhardtii, UniProt F8UWQ7, R276A); assay: HPLC of adenine formed; conditions: 0.5 mM HAP, 3 mM dithionite, 2 mM benzylviologen, 100 mM potassium phosphate pH 7.4, 37 °C
T2 construct: gene ARC; N-terminal His6 (pQE80), E. coli TP1000, Ni-NTA
T2 sequence (F8UWQ7 entry or part of it R276A): as the sequence (F8UWQ7 entry or part of it) above, with R276A counted along it

crARC [3] = target: T3, crARC (Chlamydomonas reinhardtii, UniProt F8UWQ7, D182A); assay: HPLC of adenine formed; conditions: 0.5 mM HAP, 3 mM dithionite, 2 mM benzylviologen, 100 mM potassium phosphate pH 7.4, 37 °C
T3 construct: gene ARC; N-terminal His6 (pQE80), E. coli TP1000, Ni-NTA
T3 sequence (F8UWQ7 entry or part of it D182A): as the sequence (F8UWQ7 entry or part of it) above, with D182A counted along it

crARC [4] = target: T4, crARC (Chlamydomonas reinhardtii, UniProt F8UWQ7, F210A); assay: HPLC of adenine formed; conditions: 0.5 mM HAP, 3 mM dithionite, 2 mM benzylviologen, 100 mM potassium phosphate pH 7.4, 37 °C
T4 construct: gene ARC; N-terminal His6 (pQE80), E. coli TP1000, Ni-NTA
T4 sequence (F8UWQ7 entry or part of it F210A): as the sequence (F8UWQ7 entry or part of it) above, with F210A counted along it

crARC [5] = target: T1, crARC; assay: HPLC of adenine formed; conditions: 0.5 mM HAP, 3 mM dithionite, 2 mM benzylviologen, 100 mM potassium phosphate pH 7.4, 37 °C

SMILES | HPLC of benzamidine formed (crARC [1]) | HPLC of adenine formed (crARC [2]) | HPLC of adenine formed (crARC [3]) | HPLC of adenine formed (crARC [4]) | HPLC of adenine formed (crARC [5])
NC(=NO)c1ccccc1 [benzamidoxime] | the crARC activity was assayed in vitro using benzamidoxime as a substrate |  |  |  | 
ONc1ncnc2[nH]cnc12 [HAP] |  | the mutants, D182A, F210A and R276A almost completely lost the mARC activity with dithionite | the mutants, D182A, F210A and R276A almost completely lost the mARC activity with dithionite | the mutants, D182A, F210A and R276A almost completely lost the mARC activity with dithionite | The crARC HAP reduction activity was determined with dithionite
